Assay [1] can be described thus: TBARS formation in cooked pork model system. Conditions: 80 μmol/kg meat, stored at 4° C. How it is done: Fresh ground pork (40 g) was mixed with deionized water (10 g) in a Mason jar. Samples and reference antioxidant compound (BHA) dissolved in ethanol were added to meat at a level of 80 μmol/kg. A control without any antioxidant was also prepared. The content was thoroughly mixed and cooked at 80° C. in a thermostated water bath for 40 min with intermittent stirring. The cooked meat was cooled to room temperature and homogenized with a Polytron PT 3000 (Brinkmann Instruments, Rexdale, ON) homogenizer. The homogenate was then transferred into plastic bags and stored at 4° C. for 14 days. […].
TBARS values were determined as described by Shahidi and Hong (Shahidi, F. and Hong, C. Evaluation of malonaldehyde as a marker of oxidative rancidity in meat products. J. Food Biochem. 15, 97-105, 1991).
A series of TMP (1,1,3,3-tetramethoxypropane) standard solutions at difference concentrations was mixed with thiobarbituric acid (TBA) in screw-capped tubes and heated in a boiling water bath for 45 min. After cooling on ice, the absorbance was recorded at 532 nm and a standard curve was constructed (absorbance versus concentration). For TBARS in the cooked meat model system, 2 g of meat were mixed with 5 ml of trichloroacetic acid (TCA, 10% w/v) in a centrifuge tube, followed by addition of 5 ml of TBA reagent. The mixture was centrifuged at 3000×g for 10 min and the supernatant was filtered. The filtrate was heated in a boiling water bath for 45 min and absorbance was measured at 532 nm after cooling to room temperature. TBARS values in meat samples were obtained using the standard curve as μmol malonaldehyde equivalents/kg of meat. Antioxidant activity was calculated as percentage inhibition of TBARS formation by test compounds.

For a further assay, the target named is HCV NS3/4A protease (Hepatitis C virus genotype 1a, UniProt P27958). The assay can be described thus: Inhibition against HCV protease. The class given is biochemical. On the procedure:
An aliquot (2 μl) of test compounds dissolved in DMSO was added to each well of a 384-well black Assay plate, followed by addition of 8 μl of HCV NS3/4A protease solution (0.5 μg/ml). The reaction was initiated by adding 10 μl of freshly diluted substrate (100× dilution of a DMSO stocking solution). The mixture was incubated at room temperature for 30 min, and the fluorescence intensity was measured at 485 nm for excitation and 535 nm for emission by a TECAN GENios plate reader. […] All fluorescence values were corrected with a substrate blank. Samples were assayed at different concentrations to plot a concentration VS. inhibition percentage curve, and IC50 values were obtained from the curve for each sample. A known HCV protease inhibitor, embelin, was used as a reference. Discussion

For assay [2], the system named is colon ACF and colon tumors in AOM treated mice. The assay can be described thus: AOM-treated mice, colon aberrant crypt foci and tumors. The class given is in vivo, ICR mice. On the procedure:
(§1) Male ICR mice at 5 weeks of age were purchased from the BioLASCO Experimental Animal Center (Taiwan Co., Ltd). After 1 week of acclimation, animals were randomly distributed into control and experimental groups. All animals were housed in a controlled atmosphere (25±1° C. at 50% relative humidity) and with a 12-hour light/12-hour dark cycle. Animals had free access to food and water at all times. Food cups were replenished with fresh diet every day. The experimental protocol is illustrated in FIG. 6. Mice were divided into 6 groups. One group (negative control) was fed standard diet; one group (positive control) was fed standard diet but injected with azozymethane (AOM) twice a week for 2 weeks; the remaining 4 groups had AOM injection and dietary supplementation of different levels of EGCG esters (1a and EGCG-DHA ester mixture containing predominantly 1c and its homologues). 9(b): Identification of ACF The formalin-fixed colonic tissues were cut into proximal (1-2 cm from the cecum), middle (3-4 cm) and distal (1-2 cm from anus) segments and stained in 0.2% methylene blue solution for 10 min. Methylene blue-stained ACF in each focus were counted under a microscope (×40). The ACF location (distance from anus) and size (number of aberrant crypts) were recorded. […] The densities of the bands were quantitated with a computer densitometer (AlphaImager™ 2200 System). […]

For a further assay, the system named is iNOS. The assay can be described thus: iNOS expression in colon of AOM-treated mice (western blot). The class given is in vivo, ICR mice. The following applies: western blot of colon mucosa. On the procedure: as §1
Background: In western blotting, separated proteins are transferred to a membrane and probed.

For the next assay, the system named is COX-2. The experiment in a line: COX-2 expression in colon of AOM-treated mice (western blot). The following applies: western blot of colon mucosa. The class given is in vivo, ICR mice. How it is done:
as §1

Each structure is given as a SMILES string.

Chain of HCV NS3/4A protease (P27958 1027-1657): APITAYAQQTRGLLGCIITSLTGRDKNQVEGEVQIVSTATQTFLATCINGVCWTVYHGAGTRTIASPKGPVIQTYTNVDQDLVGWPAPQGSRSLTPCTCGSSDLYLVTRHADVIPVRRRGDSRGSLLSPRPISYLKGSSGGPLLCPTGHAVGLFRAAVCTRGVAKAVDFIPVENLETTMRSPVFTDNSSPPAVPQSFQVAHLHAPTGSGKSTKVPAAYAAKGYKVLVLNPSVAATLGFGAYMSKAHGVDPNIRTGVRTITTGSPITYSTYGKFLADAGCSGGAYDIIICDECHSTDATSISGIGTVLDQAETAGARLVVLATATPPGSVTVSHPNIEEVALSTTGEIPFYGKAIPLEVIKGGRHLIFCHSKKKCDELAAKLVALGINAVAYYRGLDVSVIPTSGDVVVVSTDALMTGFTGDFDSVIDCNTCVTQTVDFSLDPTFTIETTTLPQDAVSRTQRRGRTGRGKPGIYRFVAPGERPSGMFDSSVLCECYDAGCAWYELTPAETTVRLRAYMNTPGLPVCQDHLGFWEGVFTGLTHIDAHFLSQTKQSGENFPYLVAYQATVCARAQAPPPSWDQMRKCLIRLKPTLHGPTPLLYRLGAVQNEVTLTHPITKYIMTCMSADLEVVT
Chain of HCV NS3/4A protease (P27958 1658-1711): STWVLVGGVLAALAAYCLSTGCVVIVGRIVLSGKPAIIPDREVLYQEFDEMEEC

As to `COc1ccc(O)c(C(C)(C)C)c1` [BHA, reference compound], the “Inhibition of TBARS formation in cooked pork” value in assay [1] is recorded as 83.3 ± 2.34^ab %.
Take `CCCC(=O)Oc1cc(OC(=O)CCC)c2c(c1)OC(c1cc(OC(=O)CCC)c(OC(=O)CCC)c(OC(=O)CCC)c1)C(OC(=O)c1cc(OC(=O)CCC)c(OC(=O)CCC)c(OC(=O)CCC)c1)C2` (stereo not shown) [Compound 1g, EGCG-octabutyrate]: the IC50 against HCV NS3/4A protease (HCV NS3/4A protease 0.5 μg/ml, 30 min, room temperature) was found to be 980 nM. Also, the “HCV protease inhibitory activity relative to embelin” value at HCV NS3/4A protease (fold stronger than embelin) is recorded as 10 fold. Further, the Colon tumors result in assay [2] (AOM treated mice, FIG. 7) is listed as “inhibited to a lesser level”. Besides, the “Tumorogenesis in terms of number and size of ACF” value in assay [2] (AOM-injected male ICR mice, dietary supplementation) is given as “significantly suppressed tumorogenesis”. Besides, the “iNOS expression in mice colon” value in the assay on iNOS was “dose-dependent inhibitory effect”. The “COX-2 expression in mice colon” value in the assay with COX-2 was “dose-dependent inhibitory effect”.

The IC50 is the concentration that gives 50% inhibition. A higher IC50 goes with weaker potency in that assay.

The values above are taken from patent US9018248B2, “Fatty acid derivatives of catechins and methods of their use” (Genesis Group Inc., priority 2010, dated 2015).
